# The supplement of paper PMC10307832
# Legend:
# Assay in all cases: relative viability (nuclei count vs DMSO), 5 days (fraction); higher = more cells survive
# A-427 = system: A-427
# Procedure, shortened: (§1)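 Lung cancer cell lines in 1536-well plates were dosed by pin tool the day after seeding, either with one drug alone or with a fixed anchor-drug dose plus five library-drug doses (not always all listed) in √10 steps. After 5 days, cells were fixed and their nuclei stained in one step (final 0.05% Triton X-100, 1% formaldehyde, 1 ug/ml Hoechst), then counted on 4× images. Relative viability is the nuclei count in treated wells divided by that in vehicle wells. Values are medians of duplicate plates.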
# HCC-15 = system: HCC-15
# Procedure, shortened: as §1
# HCC-78 = system: HCC-78
# Procedure, shortened: as §1
# HOP-62 = system: HOP-62
# Procedure, shortened: as §1
# LC-2-ad = system: LC-2-ad
# Procedure, shortened: as §1
# LOU-NH91 = system: LOU-NH91
# Procedure, shortened: as §1
# LXF-289 = system: LXF-289
# Procedure, shortened: as §1
# NCI-H1734 = system: NCI-H1734
# Procedure, shortened: as §1
# NCI-H1755 = system: NCI-H1755
# Procedure, shortened: as §1
# NCI-H1792 = system: NCI-H1792
# Procedure, shortened: as §1
# NCI-H1915 = system: NCI-H1915
# Procedure, shortened: as §1
# NCI-H1975 = system: NCI-H1975
# Procedure, shortened: as §1
# NCI-H2126 = system: NCI-H2126
# Procedure, shortened: as §1
# NCI-H2228 = system: NCI-H2228
# Procedure, shortened: as §1
# NCI-H2342 = system: NCI-H2342
# Procedure, shortened: as §1
# NCI-H2347 = system: NCI-H2347
# Procedure, shortened: as §1
# NCI-H358 = system: NCI-H358
# Procedure, shortened: as §1
# NCI-H460 = system: NCI-H460
# Procedure, shortened: as §1
# NCI-H647 = system: NCI-H647
# Procedure, shortened: as §1
# PC-3 [JPC-3] = system: PC-3 [JPC-3]
# Procedure, shortened: as §1
# RERF-LC-KJ = system: RERF-LC-KJ
# Procedure, shortened: as §1
# SK-LU-1 = system: SK-LU-1
# Procedure, shortened: as §1
# SW 1573 = system: SW 1573
# Procedure, shortened: as §1
structure (smiles),measurement,setting,value
Oc1nc(-c2ccc(C(F)(F)F)cc2)nc2c1CSCC2 [XAV939] + COc1cccc2cc(-c3nc([C@H]4CC[C@H](C(=O)O)CC4)n4ncnc(N)c34)[nH]c12 [OSI-027] (partner 0.5 µM),relative viability,A-427; first compound 0.08 µM,0.49
same,relative viability,A-427; first compound 0.253 µM,0.427
same,relative viability,A-427; first compound 0.8 µM,0.419
same,relative viability,A-427; first compound 2.53 µM,0.393
same,relative viability,HCC-15; first compound 0.08 µM,0.797
same,relative viability,HCC-15; first compound 0.253 µM,0.619
same,relative viability,HCC-15; first compound 0.8 µM,0.738
same,relative viability,HCC-15; first compound 2.53 µM,0.655
same,relative viability,HCC-78; first compound 0.08 µM,0.341
same,relative viability,HCC-78; first compound 0.253 µM,0.361
same,relative viability,HCC-78; first compound 0.8 µM,0.356
same,relative viability,HCC-78; first compound 2.53 µM,0.297
same,relative viability,HOP-62; first compound 0.08 µM,1.01
same,relative viability,HOP-62; first compound 0.253 µM,0.773
same,relative viability,HOP-62; first compound 0.8 µM,0.763
same,relative viability,HOP-62; first compound 2.53 µM,0.574
same,relative viability,LC-2-ad; first compound 0.08 µM,0.907
same,relative viability,LC-2-ad; first compound 0.253 µM,0.815
same,relative viability,LC-2-ad; first compound 0.8 µM,0.889
same,relative viability,LC-2-ad; first compound 2.53 µM,0.864
same,relative viability,LOU-NH91; first compound 0.08 µM,0.701
same,relative viability,LOU-NH91; first compound 0.253 µM,0.662
same,relative viability,LOU-NH91; first compound 0.8 µM,0.69
same,relative viability,LOU-NH91; first compound 2.53 µM,0.675
same,relative viability,LXF-289; first compound 0.08 µM,0.817
same,relative viability,LXF-289; first compound 0.253 µM,0.721
same,relative viability,LXF-289; first compound 0.8 µM,0.746
same,relative viability,LXF-289; first compound 2.53 µM,0.658
same,relative viability,NCI-H1734; first compound 0.08 µM,0.632
same,relative viability,NCI-H1734; first compound 0.253 µM,0.551
same,relative viability,NCI-H1734; first compound 0.8 µM,0.575
same,relative viability,NCI-H1734; first compound 2.53 µM,0.51
same,relative viability,NCI-H1755; first compound 0.08 µM,0.731
same,relative viability,NCI-H1755; first compound 0.253 µM,0.683
same,relative viability,NCI-H1755; first compound 0.8 µM,0.739
same,relative viability,NCI-H1755; first compound 2.53 µM,0.585
same,relative viability,NCI-H1792; first compound 0.08 µM,0.82
same,relative viability,NCI-H1792; first compound 0.253 µM,0.677
same,relative viability,NCI-H1792; first compound 0.8 µM,0.839
same,relative viability,NCI-H1792; first compound 2.53 µM,0.672
same,relative viability,NCI-H1915; first compound 0.08 µM,0.707
same,relative viability,NCI-H1915; first compound 0.253 µM,0.321
same,relative viability,NCI-H1915; first compound 0.8 µM,0.597
same,relative viability,NCI-H1915; first compound 2.53 µM,0.589
same,relative viability,NCI-H1975; first compound 0.08 µM,0.829
same,relative viability,NCI-H1975; first compound 0.253 µM,0.639
same,relative viability,NCI-H1975; first compound 0.8 µM,0.681
same,relative viability,NCI-H1975; first compound 2.53 µM,0.526
same,relative viability,NCI-H2126; first compound 0.08 µM,0.651
same,relative viability,NCI-H2126; first compound 0.253 µM,0.649
same,relative viability,NCI-H2126; first compound 0.8 µM,0.682
same,relative viability,NCI-H2126; first compound 2.53 µM,0.61
same,relative viability,NCI-H2228; first compound 0.08 µM,0.704
same,relative viability,NCI-H2228; first compound 0.253 µM,0.467
same,relative viability,NCI-H2228; first compound 0.8 µM,0.479
same,relative viability,NCI-H2228; first compound 2.53 µM,0.546
same,relative viability,NCI-H2342; first compound 0.08 µM,0.596
same,relative viability,NCI-H2342; first compound 0.253 µM,0.481
same,relative viability,NCI-H2342; first compound 0.8 µM,0.531
same,relative viability,NCI-H2342; first compound 2.53 µM,0.464
same,relative viability,NCI-H2347; first compound 0.08 µM,0.571
same,relative viability,NCI-H2347; first compound 2.53 µM,0.217
same,relative viability,NCI-H358; first compound 0.08 µM,0.793
same,relative viability,NCI-H358; first compound 0.253 µM,0.624
same,relative viability,NCI-H358; first compound 0.8 µM,0.785
same,relative viability,NCI-H358; first compound 2.53 µM,0.605
same,relative viability,NCI-H460; first compound 0.08 µM,0.904
same,relative viability,NCI-H460; first compound 0.253 µM,0.555
same,relative viability,NCI-H460; first compound 0.8 µM,0.745
same,relative viability,NCI-H460; first compound 2.53 µM,0.631
same,relative viability,NCI-H647; first compound 0.08 µM,0.722
same,relative viability,NCI-H647; first compound 0.253 µM,0.46
same,relative viability,NCI-H647; first compound 0.8 µM,0.656
same,relative viability,NCI-H647; first compound 2.53 µM,0.464
same,relative viability,PC-3 [JPC-3]; first compound 0.08 µM,0.756
same,relative viability,PC-3 [JPC-3]; first compound 0.253 µM,0.611
same,relative viability,PC-3 [JPC-3]; first compound 0.8 µM,0.777
same,relative viability,PC-3 [JPC-3]; first compound 2.53 µM,0.599
same,relative viability,RERF-LC-KJ; first compound 0.08 µM,0.607
same,relative viability,RERF-LC-KJ; first compound 0.253 µM,0.533
same,relative viability,RERF-LC-KJ; first compound 0.8 µM,0.464
same,relative viability,RERF-LC-KJ; first compound 2.53 µM,0.526
same,relative viability,SK-LU-1; first compound 0.08 µM,0.387
same,relative viability,SK-LU-1; first compound 0.253 µM,0.339
same,relative viability,SK-LU-1; first compound 0.8 µM,0.394
same,relative viability,SK-LU-1; first compound 2.53 µM,0.34
same,relative viability,SW 1573; first compound 0.08 µM,0.602
same,relative viability,SW 1573; first compound 0.253 µM,0.556
same,relative viability,SW 1573; first compound 0.8 µM,0.542
same,relative viability,SW 1573; first compound 2.53 µM,0.494
